In patent publication US10329294B2, “Pyrazolopyrimidine inhibitors of IRAK4 activity” (MERCK SHARP & DOHME CORP., priority 2015, dated 2019):
Where a name gives a salt, the structure may show the parent alone. Read-outs that look alike come from different tables or passages of the source.

Target: IRAK4 (Homo sapiens (Human), UniProt Q9NWZ3)
Experiment: IRAK4 Kinase Assay
Type: biochemical
Settings: IMAP fluorescence polarization, 0.5 nM GST tagged IRAK4, 100 μM ATP, 30 minutes at 25° C.

IRAK4, sequence (Q9NWZ3 whole entry): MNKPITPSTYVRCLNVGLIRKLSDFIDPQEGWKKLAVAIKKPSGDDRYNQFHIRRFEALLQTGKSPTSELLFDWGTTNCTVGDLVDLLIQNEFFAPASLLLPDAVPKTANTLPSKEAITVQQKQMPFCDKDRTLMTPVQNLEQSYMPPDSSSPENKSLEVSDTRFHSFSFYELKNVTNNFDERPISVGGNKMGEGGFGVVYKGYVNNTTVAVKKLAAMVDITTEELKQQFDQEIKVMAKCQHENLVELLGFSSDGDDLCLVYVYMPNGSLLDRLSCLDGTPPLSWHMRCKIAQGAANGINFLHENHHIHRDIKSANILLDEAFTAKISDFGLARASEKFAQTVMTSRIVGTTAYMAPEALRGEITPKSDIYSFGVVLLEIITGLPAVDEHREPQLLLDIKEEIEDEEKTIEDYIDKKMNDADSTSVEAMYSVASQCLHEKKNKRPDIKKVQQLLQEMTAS

SMILES	IC50 (read-out: IRAK4 IC50)	IC50 (IRAK4 IC50 (nM))
N#Cc1sccc1NC(=O)c1cnn2ccc(N[C@@H]3CCCC(F)(F)[C@@H]3N)nc12 [Example 191, 5-{[(1R,2R)-2-amino-3,3-difluorocyclohexyl]amino}-N-(2-cyanothiophen-3-yl)pyrazolo[1,5-a]pyrimidine-3-carboxamide]	156 nM	
O=C(Nc1ccccc1Cl)c1cnn2ccc(N[C@@H]3CCCC[C@@H]3O)nc12 [Example 194, N-(2-chlorophenyl)-5-{[(1R,2S)-2-hydroxycyclohexyl]amino} pyrazolo[1,5-a]pyrimidine-3-carboxamide]	1750 nM	
O=C(Nc1ccccc1Br)c1cnn2ccc(N[C@@H]3CCCC[C@@H]3O)nc12 [Example 195, N-(2-bromophenyl)-5-{[(1R,2S)-2-hydroxycyclohexyl]amino} pyrazolo[1,5-a]pyrimidine-3-carboxamide]	2930 nM	
O=C(Nc1ccsc1Br)c1cnn2ccc(N[C@@H]3CCCC[C@@H]3O)nc12 [Example 196, N-(2-bromothiophen-3-yl)-5-{[(1R,2S)-2-hydroxycyclohexyl]amino} pyrazolo[1,5-a]pyrimidine-3-carboxamide trifluoroacetate]	2650 nM	
CC(C)n1cc(NC(=O)c2cnn3ccc(N[C@@H]4CCCC[C@@H]4O)nc23)c(C(F)F)n1 [Example 199, N-[3-(difluoromethyl)-1-(1-methylethyl)-1H-pyrazol-4-yl]-5-{[(1R,2S)-2-hydroxycyclohexyl]amino} pyrazolo[1,5-a]pyrimidine-3-carboxamide]	9 nM	
CC(C)n1cc(NC(=O)c2cnn3ccc(N[C@@H]4CCCC(F)(F)[C@@H]4N)nc23)c(C(F)F)n1 [Example 200, 5-{[(1R,2R)-2-amino-3,3-difluorocyclohexyl]amino}-N-[3-(difluoromethyl)-1-(1-methylethyl)-1H-pyrazol-4-yl]pyrazolo[1,5-a]pyrimidine-3-carboxamide trifluoroacetate]	36 nM	
Cn1cc(NC(=O)c2cnn3ccc(N4CC5CNCC4COC5)nc23)c(C(F)(F)F)n1 (stereo not shown) [Example 212, 5-(3-Oxa-7,9-diazabicyclo[3.3.2]decan-9-yl)-N-(1-methyl-3-(trifluoromethyl)-1H-pyrazol-4-yl)pyrazolo[1,5-a]pyrimidine-3-carboxamide]		9 nM
Cn1cc(NC(=O)c2cnn3ccc(N4CC[C@@H]5C[C@H]4CN5)nc23)c(C(F)(F)F)n1 [Example 213, 5-[(1S,5R)-2,6-diazabicyclo[3.2.1]oct-2-yl]-N-[1-methyl-3-(trifluoromethyl)-1H-pyrazol-4-yl]pyrazolo[1,5-a]pyrimidine-3-carboxamide]	3 nM	
Cn1cc(NC(=O)c2cnn3ccc(N4C5CNCC4C5)nc23)c(C(F)(F)F)n1 [Example 214, 5-(3,6-diazabicyclo[3.1.1]hept-6-yl)-N-[1-methyl-3-(trifluoromethyl)-1H-pyrazol-4-yl]pyrazolo[1,5-a]pyrimidine-3-carboxamide]	38 nM	
Cn1cc(NC(=O)c2cnn3ccc(N4CCNCC4C(F)(F)F)nc23)c(C(F)(F)F)n1 (stereo not shown) [Example 215, N-[1-methyl-3-(trifluoromethyl)-1H-pyrazol-4-yl]-5-[2-(trifluoromethyl)piperazin-1-yl]pyrazolo[1,5-a]pyrimidine-3-carboxamide trifluoroacetate]	121 nM	
Cn1cc(NC(=O)c2cnn3ccc(N4CCNCC4(C)C)nc23)c(C(F)(F)F)n1 [Example 216, 5-(2,2-dimethylpiperazin-1-yl)-N-[1-methyl-3-(trifluoromethyl)-1H-pyrazol-4-yl]pyrazolo[1,5-a]pyrimidine-3-carboxamide trifluoroacetate]	127 nM	
Cn1cc(NC(=O)c2cnn3ccc(NC4CNCC(F)(F)C4)nc23)c(C(F)(F)F)n1 (stereo not shown) [Example 217, 5-[(5,5-difluoropiperidin-3-yl)amino]-N-[1-methyl-3-(trifluoromethyl)-1H-pyrazol-4-yl]pyrazolo[1,5-a]pyrimidine-3-carboxamide]	47 nM	
Cn1cc(NC(=O)c2cnn3ccc(N4CCNC5(CC4)CC5)nc23)c(C(F)(F)F)n1 [Example 220, 5-(4,7-diazaspiro[2.6]non-7-yl)-N-[1-methyl-3-(trifluoromethyl)-1H-pyrazol-4-yl]pyrazolo[1,5-a]pyrimidine-3-carboxamide trifluoroacetate]		153 nM
Cn1cc(NC(=O)c2cnn3ccc(N4CC5CNC(C5)C4)nc23)c(C(F)(F)F)n1 (stereo not shown) [Example 223, 5-(3,6-diazabicyclo[3.2.1]oct-3-yl)-N-[1-methyl-3-(trifluoromethyl)-1H-pyrazol-4-yl]pyrazolo[1,5-a]pyrimidine-3-carboxamide trifluoroacetate]	57 nM	
Cn1cc(NC(=O)c2cnn3ccc(N4C5CCC4CNC5)nc23)c(C(F)(F)F)n1 [Example 226, 5-(3,8-diazabicyclo[3.2.1]oct-8-yl)-N-[1-methyl-3-(trifluoromethyl)-1H-pyrazol-4-yl]pyrazolo[1,5-a]pyrimidine-3-carboxamide trifluoroacetate]	2 nM	
Cn1cc(NC(=O)c2cnn3ccc(N4CCCNC5(CC5)C4)nc23)c(C(F)(F)F)n1 [Example 227, 5-(4,8-diazaspiro[2.6]non-8-yl)-N-[1-methyl-3-(trifluoromethyl)-1H-pyrazol-4-yl]pyrazolo[1,5-a]pyrimidine-3-carboxamide]	451 nM	
Cn1cc(NC(=O)c2cnn3ccc(N4C5CCC4CNC5)nc23)c(C(F)F)n1 [Example 229, 5-(3,8-diazabicyclo[3.2.1]oct-8-yl)-N-[3-(difluoromethyl)-1-methyl-1H-pyrazol-4-yl]pyrazolo[1,5-a]pyrimidine-3-carboxamide trifluoroacetate]	0.5 nM	
Cn1cc(NC(=O)c2cnn3ccc(N4CC5CNCC4C5)nc23)c(C(F)F)n1 (stereo not shown) [Example 238, 5-[3,6-diazabicyclo[3.2.1]oct-6-yl]-N-[3-(difluoromethyl)-1-methyl-1H-pyrazol-4-yl]pyrazolo[1,5-a]pyrimidine-3-carboxamide]	4 nM	
Cn1cc(NC(=O)c2cnn3ccc(N4C[C@@H](N)C[C@H](F)C4)nc23)c(C(F)F)n1 [Example 248, 5-[(3S,5S)-3-amino-5-fluoropiperidin-1-yl]-N-[3-(difluoromethyl)-1-methyl-1H-pyrazol-4-yl]pyrazolo[1,5-a]pyrimidine-3-carboxamide trifluoroacetate]	0.9 nM	
Cn1cc(NC(=O)c2cnn3ccc(N4C[C@@H](N)C[C@@H](F)C4)nc23)c(C(F)F)n1 [Example 249, 5-[(3S,5R)-3-amino-5-fluoropiperidin-1-yl]-N-[3-(difluoromethyl)-1-methyl-1H-pyrazol-4-yl]pyrazolo[1,5-a]pyrimidine-3-carboxamide trifluoroacetate]	1 nM	
Cn1cc(NC(=O)c2cnn3ccc(N4C[C@H](N)C[C@H](F)C4)nc23)c(C(F)F)n1 [Example 251, 5-[(3R,5S)-3-amino-5-fluoropiperidin-1-yl]-N-[3-(difluoromethyl)-1-methyl-1H-pyrazol-4-yl]pyrazolo[1,5-a]pyrimidine-3-carboxamide trifluoroacetate]	0.7 nM	
Cn1cc(NC(=O)c2cnn3ccc(N4C[C@H](N)C[C@@H](F)C4)nc23)c(C(F)F)n1 [Example 253, 5-[(3R,5R)-3-amino-5-fluoropiperidin-1-yl]-N-[3-(difluoromethyl)-1-methyl-1H-pyrazol-4-yl]pyrazolo[1,5-a]pyrimidine-3-carboxamide trifluoroacetate]	0.5 nM	
